Tests used:
Assay type in all cases: biochemical
cathepsin L = molecular target: T1, cathepsin L (Homo sapiens, UniProt P07711); assay: Cathepsin L enzyme inhibition in vitro (kinetic fluorescence assay); conditions: cathepsin L isolated from human liver vs calpain I
T1 construct: cathepsin L—isolated from human liver (Calbiochem #219402); purchased Calbiochem 219402; host or cells: human liver (tissue-derived)
Procedure: (§1) The following solutions and buffers were employed: • HBS (for 40 ml): 800 μl M HEPES; 2.16 ml 100 mM KCl; 4.8 ml 1M NaCl; 3.59 ml 5% glucose; 60 μl μM MgSO4; 400 μl 100 mM Na pyruvate, 28.19 ml water; pH 7.2-7.5. • lysis buffer (for 20 ml): 400 μl M Tris pH 8.2; 2.74 ml 1M NaCl; 520 μl 0.5M EDTA; 2 ml 10% triton X-100; 0.8 ml (=1:25) CompletePlus (1 tablet/2 ml H2O); 200 μl 100 mM Pefabloc; 13.34 ml water, pH 8.2. • TBST (10×) (for 1 l): 100 mM Tris (12.1 g); 1.5M NaCl (87 g); 1% Tween 20 (10 g), adjusted to pH 8. I Enzyme Inhibition In Vitro: • Testing for blockade of the corresponding enzymic activities was carried out by means of kinetic fluorescence assays (excitation 390 nm, emission 460 nm). • Apparent Ki values were calculated from the experimentally determined IC50 values by the Cheng-Prussoff relation assuming a reversible competitive enzyme inhibition. The Km values of the substrates used under the assay conditions indicated above were: 90 μM (Z-Phe-Arg-AMC, cathepsin B), 10 μM (Z-Gly-Pro-Arg-AMC, cathepsin K), 2 μM (Z-Phe-Arg-AMC, cathepsin L), and 30 μM (Z-Val-Val-Arg-AMC, cathepsin S). • The indicated Ki values are averages of the inhibition constants calculated on the basis of 2 to 4 independent dose-effect plots.
(§2) The following assays were used: • 1. Calpain I: • 20 nM calpain-I—isolated from human erythrocytes (Calbiochem #208713), 100 μM Suc-Leu-Tyr-AMC (Bachem #1-1355) as substrate in buffer with 62 mM imidazole, 0.3 mM CaCl2, 0.10% CHAPS, 0.05% BSA, 1 mM DTT at pH 7.3 and room temperature. • 2. Cathepsin B: • 0.25 nM cathepsin B—isolated from human liver (Calbiochem #219362), 100 μM Z-Phe-Arg-AMC (Bachem #I-1160) as substrate 50 mM MES, 2 mM EDTA, 0.05% Brij 35, 2.5 mM L-cysteine, pH 6.0, room temperature. • 3. Cathepsin K: • 3 nM cathepsin K—activated from recombinant human procathepsin K from E. coli (Calbiochem #342001), 10 μM Z-Gly-Pro-Arg-AMC (Biomol #P-142) as substrate in 50 mM MES, 2 mM EDTA, 0.05% Brij 35, 2.5 mM L-cysteine, pH 6.0, room temperature. • 4. Cathepsin L: • 1 nM cathepsin L—isolated from human liver (Calbiochem #219402), 2 μM Z-Phe-Arg-AMC (Bachem #1-1160) as substrate in 50 mM MES, 2 mM EDTA, 0.05% Brij 35, 2.5 mM L-cysteine, pH 6.0, room temperature. • 5. Cathepsin S: • 0.5 nM recombinant human cathepsin S from E. coli (Calbiochem #219343), 20 μM Z-Val-Val-Arg-AMC (Bachem #1-1540) as substrate in 50 mM MES, 2 mM EDTA, 0.05% Brij 35, 2.5 mM L-cysteine, pH 6.0, room temperature. • The results of the in vitro determination are indicated in Table 1. The following abbreviations are used in Table 1: • The “Calpain activity” column, ++ stands for a calpain Ki (Ki(calpain)) of ≦40 nM and + means: 40 nM<Ki(Calpain)≦100 nM. • The “Sel. cat. B” column indicates the Ki(cathepsin B)/Ki(calpain) ratio. In this connection, ++ means a Ki(cathepsin B)/Ki(calpain) ratio of ≧30 and + means 10≦Ki(cathepsin B)/Ki(calpain)<30. • The “Sel. cat. K” column indicates the Ki(cathepsin K)/Ki(calpain) ratio. In this connection, ++ means a Ki(cathepsin K)/Ki(calpain) ratio of ≧30 and + means 10≦Ki(cathepsin K)/Ki(calpain)<30. • The “Sel. cat. L” column indicates the Ki(cathepsin L)/Ki(calpain) ratio. In this connection, ++ means a Ki(cathepsin L)/Ki(calpain) ratio of ≧50 and + means 30≦Ki(cathepsin L)/Ki(calpain)<50. • The “Sel. cat. S” column indicates the Ki(cathepsin S)/Ki(calpain) ratio. In this connection, ++ means a Ki(cathepsin S)/Ki(calpain) ratio of ≧100 and + means 50≦Ki(cathepsin S)/Ki(calpain)<100.

cathepsin B = molecular target: T2, cathepsin B (Homo sapiens, UniProt P07858); assay: Cathepsin B enzyme inhibition in vitro (kinetic fluorescence assay); conditions: cathepsin B isolated from human liver vs calpain I
T2 construct: cathepsin B—isolated from human liver (Calbiochem #219362); purchased Calbiochem 219362; host or cells: human liver (tissue-derived)
Procedure: as §1, §2

cathepsin S = molecular target: T3, cathepsin S (Homo sapiens, UniProt P25774); assay: Cathepsin S enzyme inhibition in vitro (kinetic fluorescence assay); conditions: recombinant human cathepsin S vs calpain I
T3 construct: purchased Calbiochem 219343; host or cells: E. coli
Procedure: as §1, §2

T1 sequence (P07711 114-333): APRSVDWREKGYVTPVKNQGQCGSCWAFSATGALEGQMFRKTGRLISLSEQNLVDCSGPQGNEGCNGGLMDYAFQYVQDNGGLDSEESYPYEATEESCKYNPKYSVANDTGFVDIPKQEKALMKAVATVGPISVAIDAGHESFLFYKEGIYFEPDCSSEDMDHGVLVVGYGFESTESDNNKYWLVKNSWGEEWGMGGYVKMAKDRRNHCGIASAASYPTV
T3 sequence (P25774 115-331): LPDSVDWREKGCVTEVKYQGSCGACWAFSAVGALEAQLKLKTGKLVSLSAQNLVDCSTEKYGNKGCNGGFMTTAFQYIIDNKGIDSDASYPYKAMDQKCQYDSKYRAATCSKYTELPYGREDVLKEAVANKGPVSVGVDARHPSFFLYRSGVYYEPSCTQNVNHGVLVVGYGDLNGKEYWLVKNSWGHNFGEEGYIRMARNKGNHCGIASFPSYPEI

| Molecule | Sel cat. L: Ki(cathepsin L)/Ki(calpain) ratio (cathepsin L) | Sel cat. B: Ki(cathepsin B)/Ki(calpain) ratio (cathepsin B) | Sel cat. S: Ki(cathepsin S)/Ki(calpain) ratio (cathepsin S) |
| --- | --- | --- | --- |
| NC(=O)C(=O)C(Cc1cccs1)NC(=O)c1cccnc1-n1ccc(-c2ccccc2)n1 (centres unmarked) [Example 40, N-[3-Amino-2,3-dioxo-1-(2-thienylmethyl)propyl]-2-(3-phenyl-1H-pyrazol-1-yl)pyridine-3-carboxamide] | ++ (++ means a Ki(cathepsin L)/Ki(calpain) ratio of ≧50) | + (+ means 10≦Ki(cathepsin B)/Ki(calpain)<30) | ++ (++ means a Ki(cathepsin S)/Ki(calpain) ratio of ≧100) |
| N-{3-Amino-1-[(4-fluorophenyl)methyl]-2,3-dioxopropyl}-2-[3-(2,3-dichlorophenyl)-1H-pyrazol-1-yl]pyridine-3-carboxamide [Example 161] | + (+ means 30≦Ki(cathepsin L)/Ki(calpain)<50) | + (+ means 10≦Ki(cathepsin B)/Ki(calpain)<30) | ++ (++ means a Ki(cathepsin S)/Ki(calpain) ratio of ≧100) |
| CC(C)CC(NC(=O)c1cc(Cl)cnc1-n1ccc(-c2ccccc2)n1)C(=O)C(N)=O (centres unmarked) [Example 32, N-{1-[Amino(oxo)acetyl]-3-methylbutyl}-5-chloro-2-(3-phenyl-1H-pyrazol-1-yl)nicotinamide] |  | + (+ means 10≦Ki(cathepsin B)/Ki(calpain)<30) |  |
| Cc1cc(-c2ccccc2)nn1-c1ncccc1C(=O)NC(Cc1ccccc1)C(=O)C(N)=O (centres unmarked) [Example 61, N-(3-Amino-1-benzyl-2,3-dioxopropyl)-2-(5-methyl-3-phenyl-1H-pyrazol-1-yl)nicotinamide] |  | + (+ means 10≦Ki(cathepsin B)/Ki(calpain)<30) | ++ (++ means a Ki(cathepsin S)/Ki(calpain) ratio of ≧100) |
| CC(C)c1ccc2c(c1)-c1nn(-c3ncccc3C(=O)NC(Cc3ccccc3)C(=O)C(N)=O)cc1CO2 (centres unmarked) [Example 144, N-[3-Amino-2,3-dioxo-1-(phenylmethyl)propyl]-2-[8-(1-methylethyl)chromeno[4,3-c]pyrazol-2(4H)-yl]pyridine-3-carboxamide] | ++ (++ means a Ki(cathepsin L)/Ki(calpain) ratio of ≧50) | + (+ means 10≦Ki(cathepsin B)/Ki(calpain)<30) | ++ (++ means a Ki(cathepsin S)/Ki(calpain) ratio of ≧100) |
| NC(=O)C(=O)C(Cc1ccc(Br)cc1)NC(=O)c1cccnc1-n1ccc(-c2ccccc2)n1 (centres unmarked) [Example 122, N-{3-Amino-1-[(4-bromophenyl)methyl]-2,3-dioxopropyl}-2-(3-phenyl-1H-pyrazol-1-yl)pyridine-3-carboxamide] | ++ (++ means a Ki(cathepsin L)/Ki(calpain) ratio of ≧50) | ++ (++ means a Ki(cathepsin B)/Ki(calpain) ratio of ≧30) | ++ (++ means a Ki(cathepsin S)/Ki(calpain) ratio of ≧100) |
| NC(=O)C(=O)C(Cc1ccccc1)NC(=O)c1cccnc1-n1ccc(-c2ccc(N3CCCCC3)cc2)n1 (centres unmarked) [Example 64, N-(3-Amino-1-benzyl-2,3-dioxopropyl)-2-[3-(4-piperidin-1-ylphenyl)-1H-pyrazol-1-yl]nicotinamide] |  | + (+ means 10≦Ki(cathepsin B)/Ki(calpain)<30) | ++ (++ means a Ki(cathepsin S)/Ki(calpain) ratio of ≧100) |
| CCCCC(NC(=O)c1cc(Cl)cnc1-n1ccc(-c2ccccc2)n1)C(=O)C(N)=O (centres unmarked) [Example 28, N-{1-[Amino(oxo)acetyl]pentyl}-5-chloro-2-(3-phenyl-1H-pyrazol-1-yl)nicotinamide] |  | + (+ means 10≦Ki(cathepsin B)/Ki(calpain)<30) |  |
| CCCCC(NC(=O)c1cccnc1-n1ccc(-c2ccc(N3CCOCC3)cc2)n1)C(=O)C(N)=O (centres unmarked) [Example 33, N-{1-[Amino(oxo)acetyl]pentyl}-2-[3-(4-morpholin-4-ylphenyl)-1H-pyrazol-1-yl]nicotinamide] |  | + (+ means 10≦Ki(cathepsin B)/Ki(calpain)<30) | + (+ means 50≦Ki(cathepsin S)/Ki(calpain)<100) |
